Data: paper PMC6444227, “Pharmacological Evaluation of Secondary Metabolites and Their Simultaneous Determination in the Arabian Medicinal Plant Plicosepalus curviflorus Using HPTLC Validated Method” (Journal of Analytical Methods in Chemistry, 2019)
Values after ≈ are worked out from the molar mass of the structure shown.

Legend:
iNOS = iNOS inhibition, nitrite level in LPS-treated macrophages (Griess); type: cell-based, mouse; settings: for IC50: Mus musculus
Experimental: Mouse macrophage (RAW264.7) cells were seeded in the wells of 96-well plates followed by 24 hrs for confluency according to the method described previously. The test samples were treated with LPS (5 μg/mL) and followed by 24-hour incubation as well. The nitrite level in cell supernatant was measured by Griess reagent. The dose response curves gave indication for IC50 values. Parthenolide was used as positive control.

PPARγ = molecular target: T1, PPARγ (Homo sapiens, UniProt P37231); test: PPARγ reporter gene assay (luciferase fold induction); type: cell-based; settings: for PPAR gamma agonistic activity, fold induction: dual activation
T1 construct: expressed in transfected cells
T1 sequence (P37231 1-505): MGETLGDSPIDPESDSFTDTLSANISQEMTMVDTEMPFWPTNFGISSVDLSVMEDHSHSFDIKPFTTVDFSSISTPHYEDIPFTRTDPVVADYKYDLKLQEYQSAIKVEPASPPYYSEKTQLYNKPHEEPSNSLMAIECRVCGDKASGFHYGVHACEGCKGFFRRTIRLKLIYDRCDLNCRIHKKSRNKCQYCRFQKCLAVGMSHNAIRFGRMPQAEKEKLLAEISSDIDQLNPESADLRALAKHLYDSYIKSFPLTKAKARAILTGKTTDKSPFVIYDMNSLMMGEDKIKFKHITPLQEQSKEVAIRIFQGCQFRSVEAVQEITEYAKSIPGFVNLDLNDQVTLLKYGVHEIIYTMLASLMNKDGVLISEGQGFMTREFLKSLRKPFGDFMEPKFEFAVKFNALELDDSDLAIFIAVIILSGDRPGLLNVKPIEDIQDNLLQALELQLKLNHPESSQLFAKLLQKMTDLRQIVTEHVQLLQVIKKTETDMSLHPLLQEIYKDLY
Experimental: (§1) A reporter gene assay was carried out as described previously. Briefly, upon confluency, the different concentrations of the test samples were exposed to transfected cells for 24 hrs. Vehicle control was taken into consideration when the fold induction in luciferase activity was calculated. Both rosiglitazone and ciprofibrate were used as control drugs for PPARα and PPARγ, respectively.
(§2) Fold induction in the PPAR activity was detected in response to the methanol fraction and pure compounds according to untreated controls. A fold induction of 1.5 means a 50% increase in PPAR activity. […] Several studies have been carried out with the aim of exploring the potential of selective PPARγ modulators. The dual activator effect of P2 is in agreement with previous literature.

PPARα = molecular target: T2, PPARα (Homo sapiens, UniProt Q07869); test: PPARα reporter gene assay (luciferase fold induction); type: cell-based; settings: for PPAR alpha agonistic activity, fold induction: dual activation
T2 construct: expressed in transfected cells
T2 sequence (Q07869 1-468): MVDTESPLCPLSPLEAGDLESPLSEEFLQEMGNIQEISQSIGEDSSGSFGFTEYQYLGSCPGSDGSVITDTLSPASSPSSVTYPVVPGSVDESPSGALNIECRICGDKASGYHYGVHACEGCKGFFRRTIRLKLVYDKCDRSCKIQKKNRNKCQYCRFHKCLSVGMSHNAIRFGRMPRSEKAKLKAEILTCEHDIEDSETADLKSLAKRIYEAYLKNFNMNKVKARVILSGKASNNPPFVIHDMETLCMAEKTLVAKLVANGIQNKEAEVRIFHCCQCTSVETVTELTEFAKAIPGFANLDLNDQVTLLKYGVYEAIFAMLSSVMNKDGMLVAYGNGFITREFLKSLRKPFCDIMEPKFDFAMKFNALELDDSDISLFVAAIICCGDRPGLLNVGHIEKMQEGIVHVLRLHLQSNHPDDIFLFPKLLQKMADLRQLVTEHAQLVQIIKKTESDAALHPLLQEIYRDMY
Experimental: as §1, §2

LLC-PK11 = test: Cytotoxicity assay (Borenfreund method, 48 h); type: cell-based; settings: NA = no cytotoxic activity upto 100 µg/mL, read-out: Noncancer cells IC50, LLC-PK11
Experimental: (§3) Four human cancer cell lines (SK-OV-3, SK-MEL, BT-549 and KB) and two noncancerous kidney cell lines (VERO and LLC-PK1) were measured in the in vitro cytotoxic study. Test samples were added on the cell lines with variable concentrations, followed by 48 h incubation. According to the Borenfreund method, the cell viability was determined at the end of incubation, using doxorubicin as a positive control.

HepG2 cells = test: Cellular antioxidant assay (decrease in oxidative stress, ABAP); type: cell-based, human
Experimental: Human hepatoma cell line (HepG2) was the cell line of choice in this study according to the previously described method. At a density of 60,000 cells/well, the HepG2 cells were seeded in a 96-well plate and incubated for 24 h for confluency. PBS was used for washing the cells, followed by samples treatment. The SpectraMax plate reader was used for reading the plates after addition of 600 μM of ABAP. The area under the curve (AUC) of fluorescence units and time were two parameters used for indication of the percent decrease in oxidative stress. Percent decrease in oxidative stress = 100 − ((AUC sample/AUC control) × 100). Quercetin was used as a positive control.

[1] = tested on: four cancerous cell lines as well as the two normal cell lines; test: Cytotoxicity, whole panel; type: cell-based; settings: all cell lines
Experimental: as §3

[2] = tested on: Escherichia fergusonii (CU928158.2); test: Antibacterial broth microdilution (MIC); type: cell-based; settings: read-out: MIC, E. fergusonii
Text: (§4) (CP017183.1), Escherichia fergusonii (CU928158.2), and Pseudomonas aeruginosa (NR-117678.1) and Gram-positive Staphylococcus aureus (CP011526.1) and Bacillus licheniformis (KX785171.1) using well diffusion and broth microdilution techniques as described by Berghe and […] [16]. The bacterial strains were suspended in a nutrient broth for 24 hr, and the suspension then spread on Mueller-Hinton agar. […] Amikacin was used as the positive control.

[3] = tested on: Escherichia fergusonii (CU928158.2); test: Antibacterial well diffusion; type: cell-based; settings: 10 µL per well, mean ± SD
Text: as §4

[4] = tested on: Bacillus cereus (ATCC 14579); test: Antibacterial well diffusion; type: cell-based; settings: 10 µL per well, mean ± SD
[5] = tested on: Pseudomonas aeruginosa (ATCC 27853); test: Antibacterial broth microdilution (MIC); type: cell-based; settings: ATCC27853, read-out: MIC, P. aeruginosa
Text: as §4

[6] = tested on: Klebsiella pneumonia (ATCC 700603); test: Antibacterial broth microdilution (MIC); type: cell-based; settings: Klebsiella pneumoniae, ATCC700603, read-out: MIC, K. pneumonia
Text: as §4

Staphylococcus aureus [7] = test: Antibacterial broth microdilution (MIC); type: cell-based; settings: read-out: MIC, S. aureus
Text: as §4

[8] = tested on: Pseudomonas aeruginosa (ATCC 27853); test: Antibacterial well diffusion; type: cell-based; settings: 10 µL per well, mean ± SD
Text: as §4

[9] = tested on: Klebsiella pneumonia (ATCC 700603); test: Antibacterial well diffusion; type: cell-based; settings: 10 µL per well, mean ± SD
Text: as §4

Staphylococcus aureus [10] = test: Antibacterial well diffusion; type: cell-based; settings: 10 µL per well, mean ± SD
Text: as §4

[11] = tested on: Bacillus cereus (ATCC 14579); test: Antibacterial broth microdilution (MIC); type: cell-based; settings: ATCC14579, read-out: MIC, B. cereus
[12] = RAW264.7, LPS 5 µg/mL, 24 h, NA = no activity up to 100 µg/mL
[13] = at 250 µg/mL for pure compounds

Structure (SMILES)	iNOS inhibition (in words) (iNOS)	PPAR gamma agonistic activity, fold induction (PPARγ)	PPAR alpha agonistic activity, fold induction (PPARα)	IC50 (LLC-PK11) [µg/mL]	% decrease in oxidative stress (HepG2 cells; [13]) [%]	Cytotoxicity (in words) [1]	MIC [2] [µg/mL]	ZOI diameter, E. fergusonii [3] [mm]	other results
Oc1cc(O)c2c(c1)O[C@@H](c1ccc(O)c(O)c1)[C@H](O)C2 [Compound P2, (-)-catechin]	showed iNOS inhibition	≥ 1.5 fold	≥ 1.5 fold	16 (≈ 55.1 µM)	39	not cytotoxic	11 (≈ 37.9 µM)	8 ± 1	IC50 (iNOS; [12]): > 50 µg/mL; fold induction at 12.5 µg/mL (PPARγ; 12.5 µg/mL, 24 hrs, NA = not active, read-out: Fold induction PPAR gamma): 1.19; fold induction at 25 µg/mL (PPARγ; 25 µg/mL, 24 hrs, NA = not active, read-out: Fold induction PPAR gamma): 1.55; fold induction at 50 µg/mL (PPARγ; 50 µg/mL, 24 hrs, NA = not active, read-out: Fold induction PPAR gamma): 1.53; fold induction at 12.5 µg/mL (PPARα; 12.5 µg/mL, 24 hrs, NA = not active, read-out: Fold induction PPAR alpha): 1.19; fold induction at 25 µg/mL (PPARα; 25 µg/mL, 24 hrs, NA = not active, read-out: Fold induction PPAR alpha): 1.31; fold induction at 50 µg/mL (PPARα; 50 µg/mL, 24 hrs, NA = not active, read-out: Fold induction PPAR alpha): 1.47
O=C(Oc1cc(O)cc2c1C[C@@H](O)[C@H](c1ccc(O)c(O)c1)O2)c1cc(O)c(O)c(O)c1 [Compound P3, 2S,3R-3,3′,4′,5,7-pentahydroxyflavane-5-O-gallate]	did not show any	no PPAR agonistic activity	no PPAR agonistic activity		57	not cytotoxic			
O=c1c(O)c(-c2ccc(O)c(O)c2)oc2cc(O)cc(O)c12 [Compound P1, quercetin]		no PPAR agonistic activity	no PPAR agonistic activity	55 (≈ 182 µM)	52	not cytotoxic	9.3 (≈ 30.8 µM)	16.3 ± 0.57	IC50 (iNOS; RAW264.7, 24 h, RAW264.7, LPS 5 µg/mL, 24 h, NA = no activity up to 100 µg/mL): 25 µg/mL (≈ 82.7 µM); iNOS inhibition (IC50) (iNOS; [12]): 48 µg/mL; % decrease in oxidative stress (HepG2 cells; positive control at 50 µM): 75%; ZOI diameter, B. cereus [4]: 19.3 ± 1.15 mm; MIC [5]: 6.6 µg/mL (≈ 21.8 µM); MIC [6]: 6.2 µg/mL (≈ 20.5 µM); MIC (Staphylococcus aureus [7]): 8.3 µg/mL (≈ 27.5 µM); ZOI diameter, P. aeruginosa [8]: 21 ± 1 mm; ZOI diameter, K. pneumonia [9]: 21.3 ± 1.15 mm; ZOI diameter, S. aureus (Staphylococcus aureus [10]): 18 ± 1 mm; MIC [11]: 8.4 µg/mL (≈ 27.8 µM)
CC(C)(Oc1ccc(C2CC2(Cl)Cl)cc1)C(=O)O (stereo not drawn) [Ciprofibrate, reference compound]									fold induction at 10 µM (PPARα; control drug at 10 µM, read-out: Fold induction PPAR alpha): 2.2
